test system: not listed separately; experiment: Cytotoxicity against human Ava5 cells; format: cell-based; settings: not given

Compound	CC50 [nM]
NC(=S)Nc1cccc(OCCCCCOc2ccc(-c3cccs3)cc2)c1	> 50000
NC(=S)Nc1cccc(Oc2ccccc2)c1	> 50000
NC(=S)Nc1cccc(OCCCCCCCc2ccccc2)c1	23000
NC(=S)Nc1cccc(OCCCCCOc2ccc(-c3ccco3)cc2)c1	11000
CC(CCOc1ccccc1)CCOc1cccc(NC(N)=S)c1 (centres undefined)	> 50000
NC(=S)Nc1ccccc1OCCCCCc1ccccc1	31000
NC(=S)Nc1cccc(OCCCCCCc2ccccc2)c1	28000
S=C(Nc1ccccc1)Nc1cccc(OCCCCCc2ccccc2)c1	35000
NC(=S)Nc1cccc(OCCCCCOc2ccc(-n3cccc3)cc2)c1	> 50000
CCN(CC)c1ccc(OCCCCCOc2cccc(NC(N)=S)c2)cc1	> 50000
NC(=S)Nc1cccc(OCCCCCOc2ccccc2)c1	> 50000
NC(=S)Nc1cccc(OCCCCCOc2cccc(Nc3ccccc3)c2)c1	11000
CCNC(=S)Nc1cccc(OCCCCCc2ccccc2)c1	> 50000
NC(=S)Nc1cccc(OCCCCCOc2ccccn2)c1	> 50000
NC(=S)Nc1cccc(OCCCCCOc2cccc(-c3ccccc3)c2)c1	13000
CC(C)(CCOc1ccccc1)CCOc1cccc(NC(N)=S)c1	13000
NC(=S)Nc1cccc(OCCCCCOc2cccc3ncccc23)c1	15000
NC(=S)Nc1cccc(OCCCCc2ccccc2)c1	> 50000
NC(=S)Nc1cccc(OCCCCCOc2cccnc2)c1	> 50000
NC(=S)Nc1cccc(OCCCCCOc2ccnc3ccccc23)c1	24000
NC(=S)Nc1cccc(OCc2ccccc2)c1	> 50000
NC(=S)Nc1cccc(NCCCCCc2ccccc2)c1	> 50000
NC(=S)Nc1cccc(OCCCc2ccccc2)c1	> 50000

test system: Hepatitis C virus; experiment: Antiviral activity against HCV 1b infected in human Ava5 cells expressing EG(delta-4AB)SEAP fusion protein by subgenomic replicon assay; format: functional, organism-based, Hepacivirus hominis; settings: genotype 1b

Compound	EC50 [nM]
NC(=S)Nc1cccc(OCCCCCOc2ccc(-c3cccs3)cc2)c1	121
NC(=S)Nc1cccc(Oc2ccccc2)c1	494
NC(=S)Nc1cccc(OCCCCCCCc2ccccc2)c1	97
NC(=S)Nc1cccc(OCCCCCOc2ccc(-c3ccco3)cc2)c1	136
CC(CCOc1ccccc1)CCOc1cccc(NC(N)=S)c1 (centres undefined)	104
NC(=S)Nc1ccccc1OCCCCCc1ccccc1	1010
NC(=S)Nc1cccc(OCCCCCCc2ccccc2)c1	47
S=C(Nc1ccccc1)Nc1cccc(OCCCCCc2ccccc2)c1	31500
NC(=S)Nc1cccc(OCCCCCOc2ccc(-n3cccc3)cc2)c1	255
CCN(CC)c1ccc(OCCCCCOc2cccc(NC(N)=S)c2)cc1	594
NC(=S)Nc1cccc(OCCCCCOc2ccccc2)c1	59
NC(=S)Nc1cccc(OCCCCCOc2cccc(Nc3ccccc3)c2)c1	177
CCNC(=S)Nc1cccc(OCCCCCc2ccccc2)c1	685
NC(=S)Nc1cccc(OCCCCCOc2ccccn2)c1	279
NC(=S)Nc1cccc(OCCCCCOc2cccc(-c3ccccc3)c2)c1	214
CC(C)(CCOc1ccccc1)CCOc1cccc(NC(N)=S)c1	105
NC(=S)Nc1cccc(OCCCCCOc2cccc3ncccc23)c1	250
NC(=S)Nc1cccc(OCCCCc2ccccc2)c1	159
NC(=S)Nc1cccc(OCCCCCOc2cccnc2)c1	1130
NC(=S)Nc1cccc(OCCCCCOc2ccnc3ccccc23)c1	411
NC(=S)Nc1cccc(OCc2ccccc2)c1	561
NC(=S)Nc1cccc(NCCCCCc2ccccc2)c1	143
NC(=S)Nc1cccc(OCCCc2ccccc2)c1	231

test system: not listed separately; experiment: Selectivity index, ratio of CC50 for human Ava5 cells to EC50 for HCV 1b; settings: not given

Compound	Ratio CC50/EC50
NC(=S)Nc1cccc(OCCCCCOc2ccc(-c3cccs3)cc2)c1	>413
NC(=S)Nc1cccc(Oc2ccccc2)c1	>101
NC(=S)Nc1cccc(OCCCCCCCc2ccccc2)c1	237
NC(=S)Nc1cccc(OCCCCCOc2ccc(-c3ccco3)cc2)c1	81
CC(CCOc1ccccc1)CCOc1cccc(NC(N)=S)c1 (centres undefined)	>481
NC(=S)Nc1ccccc1OCCCCCc1ccccc1	31
NC(=S)Nc1cccc(OCCCCCCc2ccccc2)c1	596
S=C(Nc1ccccc1)Nc1cccc(OCCCCCc2ccccc2)c1	1
NC(=S)Nc1cccc(OCCCCCOc2ccc(-n3cccc3)cc2)c1	>196
CCN(CC)c1ccc(OCCCCCOc2cccc(NC(N)=S)c2)cc1	>84
NC(=S)Nc1cccc(OCCCCCOc2ccccc2)c1	>847
NC(=S)Nc1cccc(OCCCCCOc2cccc(Nc3ccccc3)c2)c1	62
CCNC(=S)Nc1cccc(OCCCCCc2ccccc2)c1	>73
NC(=S)Nc1cccc(OCCCCCOc2ccccn2)c1	>179
NC(=S)Nc1cccc(OCCCCCOc2cccc(-c3ccccc3)c2)c1	61
CC(C)(CCOc1ccccc1)CCOc1cccc(NC(N)=S)c1	124
NC(=S)Nc1cccc(OCCCCCOc2cccc3ncccc23)c1	60
NC(=S)Nc1cccc(OCCCCc2ccccc2)c1	>314
NC(=S)Nc1cccc(OCCCCCOc2cccnc2)c1	>44
NC(=S)Nc1cccc(OCCCCCOc2ccnc3ccccc23)c1	58
NC(=S)Nc1cccc(OCc2ccccc2)c1	>89
NC(=S)Nc1cccc(NCCCCCc2ccccc2)c1	>350
NC(=S)Nc1cccc(OCCCc2ccccc2)c1	>216
